Data set [1] can be described thus: moisture sorption (dynamic vapor sorption) and visual onset of crystallization in microwave-dried amorphous trehalose/salt samples at 61% RH. The format is physicochemical. The protocol: A stock solution of 30.8 wt % trehalose (1.3 M), made in 1×TE buffer (1×Tris-EDTA buffer, pH 8.0, consisting of 10 mM Tris-HCl and 1 mM EDTA), was used to prepare solutions with varying amounts of phosphate salts (salt to trehalose molar ratio (R) is 1:4.8, 1:2 and 1:0.7). […] The end moisture content was measured below 0.105 gH2O/gdw which is known to produce a glass transition temperature higher than room temperature in the case of aqueous trehalose solutions. […] Specifically, in order to investigate moisture sorption in different trehalose/salt compositions at the 61% relative humidity, a closed environment with a stable relative humidity over the test duration was prepared. Supersaturated salt solutions of sodium bromide (prepared by following ASTM Protocol E 104-02) are capable of producing an environment with constant relative humidity of 61%. […] glass jars with rubber seals and clamps or Mason glass jars with screw caps are used as controlled humidity vessels (1 L, total height 159 mm, mouth Dia. 89 mm). The dynamic vapor sorption (DVS) method was used to monitor moisture sorption in the microwave-processed trehalose samples before and after crystallization (crystals were detected visually in samples). The moisture uptake in trehalose/salt samples were monitored to evaluate the effect of salts on end moisture content at time zero after microwave processing at 11% RH. Moisture sorption trends in samples over the experiment duration while held in the preservation jars (61% RH) were also evaluated. In this study, the gravimetric method was used to determine the dry weight of samples with different compositions (expressed in terms of mass of water per mass of solids). […] (below the crystallization temperature of Trehalose). The sample was then cooled in a desiccator containing phosphorus pentoxide (P2O5) which maintained the humidity near 0% RH. By recording the initial wet mass and the bake-out dry mass, the dry weight of each composition was obtained.

For data set [2] the following is noted: 25° C.; cited from earlier work.
For data set [3] the following is noted: 37.5% RH; cited from earlier work.
The conditions of data set [4]: remained constant in RH environment of up to 92%; cited from earlier work.

Each structure is given as a SMILES string.

Turning to `C[N+](C)(C)CCO.O=P([O-])(O)O` [pure choline dihydrogen phosphate, choline dihydrogen phosphate], in data set [1] (61% RH), the “hygroscopicity (moisture uptake)” value is recorded as “very hygroscopic”. Moreover, the crystallization observed result in data set [1] (61% RH, pure salt without trehalose) is “no crystallization”.

For `OC[C@H]1O[C@H](O[C@H]2O[C@H](CO)[C@@H](O)[C@H](O)[C@H]2O)[C@H](O)[C@@H](O)[C@@H]1O` [pure trehalose, trehalose], the “water absorbed to enable the formation of trehalose dihydrate” value in data set [1] (61% RH) was “around 0.105 gH2O/g trehalose”. Besides, the “moisture content level after crystallization” value in data set [1] (61% RH, level the moisture content fell to after crystallization (pure trehalose: during the following 18 days)) is recorded as “around 0.105 gH2O/gdw”. The “time (day) of onset of sugar crystallization, observed visually” value in data set [1] (storage at 61% RH after microwave drying at 11% RH) is recorded as 1 days. Also, in data set [2], the “RH at which isotherm exhibited a plateau (formation of trehalose dihydrate crystals)” value is not below 44 % RH. For the same compound, the “crystals on DSC thermograms” value in data set [3] is on record as “did not show any crystals”.

For `OC[C@H]1O[C@H](O[C@H]2O[C@H](CO)[C@@H](O)[C@H](O)[C@H]2O)[C@H](O)[C@@H](O)[C@@H]1O` [trehalose dihydrate], the “moisture content of trehalose dihydrate” value in data set [4] was 9.54%.
